According to patent publication US6737383B1, “Herbicidal oxadiazolidines” (priority 1999, dated 2004):

How the values were obtained:
velvetleaf = assay: Test B pre/postemergence velvetleaf; format: in vivo, Abutilon theophrasti
Summary of the method: (§1)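 Response is a visual 0-to-10 score relative to untreated plants, where 0 means no effect and 10 means complete control, taken twelve to sixteen days after application. Treatments went onto soil at planting and onto foliage of 1- to 4-leaf plants, using a surfactant-containing non-phytotoxic solvent.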

bedstraw = assay: Test B pre/postemergence bedstraw; format: in vivo, Galium aparine; conditions: Preemergence, Rate 62 g/ha; scale 0 to 10 (0 no effect, 10 complete control)
Summary of the method: as §1

blackgrass = assay: Test B pre/postemergence blackgrass; format: in vivo, Alopecurus myosuroides
Summary of the method: as §1

pigweed = assay: Test B pre/postemergence pigweed; format: in vivo, Amaranthus retroflexus
Summary of the method: as §1

purple nutsedge = assay: Test B pre/postemergence purple nutsedge; format: in vivo, Cyperus rotundus
Summary of the method: as §1

bamyardgrass = assay: Test B flood test barnyardgrass; format: in vivo, Echinochloa crus-galli
Summary of the method: (§2)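 Flood test on plants grown to the 2-leaf stage; treated plants kept in greenhouse twelve to sixteen days, then visually rated against controls on a 0 (no effect) to 10 (complete control) scale.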

surinam grass = assay: Test B pre/postemergence surinam grass; format: in vivo, Brachiaria decumbens
Summary of the method: as §1

soybean = assay: Test B pre/postemergence soybean; format: in vivo, Glycine max
Summary of the method: as §1

rape = assay: Test B pre/postemergence rape; format: in vivo, Brassica napus
Summary of the method: as §1

cocklebur = assay: Test B pre/postemergence cocklebur; format: in vivo, Xanthium strumarium
Summary of the method: as §1

morningglory = assay: Test B pre/postemergence morningglory; format: in vivo, Ipomoea hederacea
Summary of the method: as §1

rice = assay: Test B flood test rice; format: in vivo, Oryza sativa
Summary of the method: as §2

smallflower flatsedge = assay: Test B flood test smallflower flatsedge; format: in vivo, Cyperus difformis
Summary of the method: as §2

corn = assay: Test B pre/postemergence corn; format: in vivo, Zea mays
Summary of the method: as §1

sugar beet = assay: Test B pre/postemergence sugar beet; format: in vivo, Beta vulgaris
Summary of the method: as §1

wild oat = assay: Test B pre/postemergence wild oat; format: in vivo, Avena fatua
Summary of the method: as §1

[1] = Postemergence, Rate 250 g/ha, scale 0 to 10, 0 is no effect, 10 is complete control
[2] = Postemergence, Rate 500 g/ha, scale of 0 to 10 where 0 is no effect and 10 is complete control
[3] = Preemergence, Rate 62 g/ha, scale 0 to 10 (0 no effect, 10 complete control)
[4] = Preemergence, Rate 125 g/ha, scale of 0 to 10 where 0 is no effect and 10 is complete control
[5] = Preemergence, Rate 250 g/ha, scale of 0 to 10 where 0 is no effect and 10 is complete control
[6] = Preemergence, Rate 500 g/ha, scale of 0 to 10 where 0 is no effect and 10 is complete control
[7] = Rate 62 g/ha, Postemergence, scale of 0 to 10 where 0 is no effect and 10 is complete control
[8] = Postemergence, Rate 125 g/ha, scale 0 to 10, 0 is no effect, 10 is complete control
[9] = Rate 62 g/ha, flood test species, Pre-emergence, visual evaluation after twelve to sixteen days
[10] = Rate 125 g/ha, under heading Pre-emergence, flood test species, visual evaluation after twelve to sixteen days
[11] = Rate 250 g/ha, Pre-emergence, flood-test species, scale 0 to 10, 0 is no effect, 10 is complete control
[12] = Rate 500 g/ha, Pre-emergence, flood test species, scale 0 to 10 (0 no effect, 10 complete control)

CC(C)N(C(=O)n1oc(=O)n(C(C)Cl)c1=O)c1ccc(F)cc1 (centres unmarked) [Compound 393]
8: Blackgrass plant response rating (blackgrass; [2])
3: Plant response rating, Blackgrass (blackgrass; [1]) | Blackgrass plant response rating (blackgrass; [6]) | Plant response rating, Rape (rape; [1]) | Sugarbeets plant response rating (sugar beet; [6]) | Wild oats plant response rating (wild oat; [6])
1: Soybean plant response rating (soybean; [7])
7: Sugarbeets plant response rating (sugar beet; [2])
10: Redroot pigweed plant response rating (pigweed; [6])
0: Plant response rating, Velvetleaf (velvetleaf; [1]) | Velvetleaf plant response rating (velvetleaf; [2]) | Plant response rating, Velvetleaf (velvetleaf; [3]) | Plant response rating, Velvetleaf (velvetleaf; [4]) | Velvetleaf plant response rating (velvetleaf; [5]) | Velvetleaf plant response rating (velvetleaf; [6]) | Velvetleaf plant response rating (velvetleaf; [7]) | Plant response rating, Bedstraw (bedstraw) | Plant response rating, Blackgrass (blackgrass; [3]) | Plant response rating, Blackgrass (blackgrass; [4]) | Blackgrass plant response rating (blackgrass; [5]) | Blackgrass plant response rating (blackgrass; [7]) | Plant response rating, Redroot pigweed (pigweed; [1]) | Redroot pigweed plant response rating (pigweed; [2]) | Plant response rating, Redroot pigweed (pigweed; [3]) | Redroot pigweed plant response rating (pigweed; [7]) | Plant response rating, Nutsedge (purple nutsedge; [1]) | Nutsedge plant response rating (purple nutsedge; [2]) | Plant response rating, Nutsedge (purple nutsedge; [3]) | Plant response rating, Nutsedge (purple nutsedge; [4]) | Nutsedge plant response rating (purple nutsedge; [5]) | Nutsedge plant response rating (purple nutsedge; [6]) | Nutsedge plant response rating (purple nutsedge; [7]) | Plant response rating, Barnyardgrass (0 to 10 scale, 0 is no effect, 10 is complete control) (bamyardgrass; [9]) | Barnyardgrass plant response rating (0 to 10 scale, 0 is no effect, 10 is complete control) (bamyardgrass; [10]) | Barnyardgrass plant response rating (bamyardgrass; [11]) | Barnyardgrass plant response rating (bamyardgrass; [12]) | Plant response rating, B. signalgrass (surinam grass; [8]) | Plant response rating, B. signalgrass (surinam grass; [1]) | B. signalgrass plant response rating (surinam grass; [2]) | Plant response rating, B. signalgrass (surinam grass; [3]) | Plant response rating, B. signalgrass (surinam grass; [4]) | B. signalgrass plant response rating (surinam grass; [5]) | B. signalgrass plant response rating (surinam grass; [7]) | Plant response rating, Soybean (soybean; [3]) | Plant response rating, Soybean (soybean; [4]) | Soybean plant response rating (soybean; [5]) | Soybean plant response rating (soybean; [6]) | Plant response rating, Rape (rape; [3]) | Plant response rating, Rape (rape; [4]) | Rape plant response rating (rape; [5]) | Rape plant response rating (rape; [6]) | Plant response rating, Cocklebur (cocklebur; [8]) | Plant response rating, Cocklebur (cocklebur; [1]) | Cocklebur plant response rating (cocklebur; [2]) | Plant response rating, Cocklebur (cocklebur; [3]) | Plant response rating, Cocklebur (cocklebur; [4]) | Cocklebur plant response rating (cocklebur; [5]) | Cocklebur plant response rating (cocklebur; [6]) | Cocklebur plant response rating (cocklebur; [7]) | Plant response rating, Morningglory (morningglory; [1]) | Morningglory plant response rating (morningglory; [2]) | Plant response rating, Morningglory (morningglory; [3]) | Plant response rating, Morningglory (morningglory; [4]) | Morningglory plant response rating (morningglory; [5]) | Morningglory plant response rating (morningglory; [7]) | Plant response rating, Rice (0 to 10 scale, 0 is no effect, 10 is complete control) (rice; [9]) | Rice plant response rating (0 to 10 scale, 0 is no effect, 10 is complete control) (rice; [10]) | Rice plant response rating (rice; [11]) | Rice plant response rating (rice; [12]) | Plant response rating, S. Flatsedge (0 to 10 scale, 0 is no effect, 10 is complete control) (smallflower flatsedge; [9]) | S. Flatsedge plant response rating (0 to 10 scale, 0 is no effect, 10 is complete control) (smallflower flatsedge; [10]) | S. Flatsedge plant response rating (smallflower flatsedge; [11]) | S. Flatsedge plant response rating (smallflower flatsedge; [12]) | Plant response rating, Corn (corn; [8]) | Plant response rating, Corn (corn; [1]) | Corn plant response rating (corn; [2]) | Plant response rating, Corn (corn; [3]) | Plant response rating, Corn (corn; [4]) | Corn plant response rating (corn; [5]) | Corn plant response rating (corn; [6]) | Corn plant response rating (corn; [7]) | Plant response rating, Sugarbeets (sugar beet; [1]) | Plant response rating, Sugarbeets (sugar beet; [3]) | Sugarbeets plant response rating (sugar beet; [7]) | Wild oats plant response rating (wild oat; [2]) | Plant response rating, Wild oats (wild oat; [3]) | Plant response rating, Wild oats (wild oat; [4]) | Wild oats plant response rating (wild oat; [5]) | Wild oats plant response rating (wild oat; [7])
2: Plant response rating, Blackgrass (blackgrass; [8]) | Plant response rating, Redroot pigweed (pigweed; [4]) | Redroot pigweed plant response rating (pigweed; [5]) | B. signalgrass plant response rating (surinam grass; [6]) | Plant response rating, Soybean (soybean; [1]) | Soybean plant response rating (soybean; [2]) | Morningglory plant response rating (morningglory; [6]) | Plant response rating, Sugarbeets (sugar beet; [4]) | Sugarbeets plant response rating (sugar beet; [5])
